The target in series [1] is T1, 5-hydroxytryptamine receptor 1A (Homo sapiens, UniProt P08908).
T1 sequence (P08908 whole entry): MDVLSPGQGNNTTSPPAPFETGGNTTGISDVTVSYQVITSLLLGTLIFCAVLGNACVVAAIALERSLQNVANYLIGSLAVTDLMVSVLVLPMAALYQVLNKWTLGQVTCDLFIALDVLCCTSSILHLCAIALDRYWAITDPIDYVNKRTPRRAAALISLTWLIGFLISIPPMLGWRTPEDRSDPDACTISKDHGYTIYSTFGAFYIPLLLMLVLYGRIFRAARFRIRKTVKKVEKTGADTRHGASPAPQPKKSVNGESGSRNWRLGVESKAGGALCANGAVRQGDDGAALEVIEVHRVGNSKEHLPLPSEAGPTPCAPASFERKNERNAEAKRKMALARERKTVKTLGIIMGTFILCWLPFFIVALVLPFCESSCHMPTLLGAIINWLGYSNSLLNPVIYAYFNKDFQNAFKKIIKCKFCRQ
Put plainly: Binding affinity at human 5-hydroxytryptamine 1A receptor by inhibition of [3H]8-OH-DPAT binding in Chinese hamster ovary cell line. It counts as cell-based.

Series [2] addresses T2, 5-hydroxytryptamine receptor 1A (Rattus norvegicus) (UniProt P19327).
T2 sequence (whole entry): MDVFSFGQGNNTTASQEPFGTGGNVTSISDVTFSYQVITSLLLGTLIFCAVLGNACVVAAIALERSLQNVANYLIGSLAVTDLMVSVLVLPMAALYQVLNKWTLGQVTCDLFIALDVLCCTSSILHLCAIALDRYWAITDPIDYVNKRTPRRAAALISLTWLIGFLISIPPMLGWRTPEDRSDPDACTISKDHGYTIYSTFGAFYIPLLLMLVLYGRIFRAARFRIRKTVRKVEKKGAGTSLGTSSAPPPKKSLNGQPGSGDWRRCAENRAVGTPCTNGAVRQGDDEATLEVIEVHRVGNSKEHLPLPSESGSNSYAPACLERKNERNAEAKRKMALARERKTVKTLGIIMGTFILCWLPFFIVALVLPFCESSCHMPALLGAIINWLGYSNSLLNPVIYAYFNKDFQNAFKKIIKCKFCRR
Briefly: Antagonistic activity at postsynaptic 5-hydroxytryptamine 1A receptor was measured by its ability to inhibit hypothermia elicited by s.c. administration of 8-OH-DPAT in rat;ranges from (0.50-5.30). It counts as functional, organism-based.

The target in series [3] is T3, Adrenergic receptor alpha-1 (Rattus norvegicus, UniProt P15823+P23944+P43140).
T3 sequence (P15823 whole entry): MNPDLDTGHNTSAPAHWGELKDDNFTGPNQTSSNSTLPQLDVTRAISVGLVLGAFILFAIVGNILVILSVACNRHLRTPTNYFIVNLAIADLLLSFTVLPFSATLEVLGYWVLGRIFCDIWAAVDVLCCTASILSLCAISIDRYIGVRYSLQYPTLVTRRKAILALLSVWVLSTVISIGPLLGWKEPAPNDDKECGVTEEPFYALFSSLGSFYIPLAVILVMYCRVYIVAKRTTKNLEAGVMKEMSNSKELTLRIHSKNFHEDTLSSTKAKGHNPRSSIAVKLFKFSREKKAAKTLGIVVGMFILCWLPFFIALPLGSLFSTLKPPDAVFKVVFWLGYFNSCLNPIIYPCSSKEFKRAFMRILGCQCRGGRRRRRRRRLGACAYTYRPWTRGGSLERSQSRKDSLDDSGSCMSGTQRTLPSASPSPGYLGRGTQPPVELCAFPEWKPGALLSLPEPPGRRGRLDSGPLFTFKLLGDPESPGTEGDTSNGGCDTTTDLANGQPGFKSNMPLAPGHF
T3 sequence (P23944 whole entry): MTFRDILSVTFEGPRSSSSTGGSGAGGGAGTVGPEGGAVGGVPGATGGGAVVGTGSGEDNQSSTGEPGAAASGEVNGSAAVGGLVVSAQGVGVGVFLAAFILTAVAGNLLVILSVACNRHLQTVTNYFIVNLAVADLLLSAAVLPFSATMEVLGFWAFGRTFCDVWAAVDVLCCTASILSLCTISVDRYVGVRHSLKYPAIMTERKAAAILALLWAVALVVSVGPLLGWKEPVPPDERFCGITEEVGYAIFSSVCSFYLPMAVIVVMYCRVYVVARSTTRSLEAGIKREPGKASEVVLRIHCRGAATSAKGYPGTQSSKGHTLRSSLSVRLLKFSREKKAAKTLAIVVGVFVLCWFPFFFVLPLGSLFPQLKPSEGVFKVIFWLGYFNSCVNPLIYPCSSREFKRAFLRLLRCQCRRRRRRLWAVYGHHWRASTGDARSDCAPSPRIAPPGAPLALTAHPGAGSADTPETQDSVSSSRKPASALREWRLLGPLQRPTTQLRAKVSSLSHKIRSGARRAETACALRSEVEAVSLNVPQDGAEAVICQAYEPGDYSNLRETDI
T3 sequence (P43140 whole entry): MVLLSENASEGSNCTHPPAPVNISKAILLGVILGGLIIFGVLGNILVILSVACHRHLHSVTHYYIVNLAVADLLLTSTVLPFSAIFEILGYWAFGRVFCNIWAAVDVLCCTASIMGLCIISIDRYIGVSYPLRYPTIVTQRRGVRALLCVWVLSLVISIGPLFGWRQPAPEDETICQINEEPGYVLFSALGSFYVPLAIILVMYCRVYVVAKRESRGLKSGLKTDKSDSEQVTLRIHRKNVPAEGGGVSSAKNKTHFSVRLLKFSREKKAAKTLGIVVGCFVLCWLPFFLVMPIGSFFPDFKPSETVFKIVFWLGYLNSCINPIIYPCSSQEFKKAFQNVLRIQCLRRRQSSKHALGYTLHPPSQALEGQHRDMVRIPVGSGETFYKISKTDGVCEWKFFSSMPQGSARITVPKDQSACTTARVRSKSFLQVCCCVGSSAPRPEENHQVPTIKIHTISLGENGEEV
Put plainly: Binding affinity at Alpha-1 adrenergic receptor by inhibition of [3H]-prazosin binding to rat cortex.

The nature of series [4]: Selectivity ratio towards Alpha-1 adrenergic receptor to human 5-hydroxytryptamine 1A receptor.
The nature of series [5]: In vitro oral metabolic bioavailability after incubation with hepatic microsomes. The class given is ADME, Liver. Particulars: read-out: MF.
Series [6] has as its target T2, 5-hydroxytryptamine receptor 1A (Rattus norvegicus). Briefly: Antagonistic activity at postsynaptic 5-hydroxytryptamine 1A receptor was measured by its ability to inhibit hypothermia elicited by s.c. administration of 8-OH-DPAT in rat;ranges from (0.20-1.80). The class given is functional, organism-based.
For series [7] the target is unchanged. Put plainly: Antagonistic activity at postsynaptic 5-hydroxytryptamine 1A receptor was measured by its ability to inhibit hypothermia elicited by s.c. administration of 8-OH-DPAT in rat;ranges from (0.72-2.87). It counts as functional, organism-based.
Series [8] deals with T4, 5-hydroxytryptamine receptor 1A (Homo sapiens) (UniProt P08908).
T4 sequence (whole entry): T1 sequence (P08908 whole entry)
Put plainly: Agonist efficacy of [35S]GTP-gamma-S, binding to 5-hydroxytryptamine 1A receptor compared with 5-HT. The class given is functional. On the technique in general: Binding of GTPγS marks nucleotide exchange on a G protein.

Series [9] concerns the target T2, 5-hydroxytryptamine receptor 1A (Rattus norvegicus). Put plainly: Antagonistic activity at postsynaptic 5-HT1A receptor was measured by its ability to inhibit hypothermia elicited by s.c. administration of 8-OH-DPAT in rat;ranges from (.26-3.52). It counts as functional, organism-based.
The target is the same in series [10]. Put plainly: Antagonistic activity at postsynaptic 5-hydroxytryptamine 1A receptor was measured by its ability to inhibit hypothermia elicited by s.c. administration of 8-OH-DPAT in rat;ranges from (0.20-1.60). The class given is functional, organism-based.
The target is the same in series [11]. Briefly: Antagonistic activity at postsynaptic 5-hydroxytryptamine 1A receptor was measured by its ability to inhibit hypothermia elicited by s.c. administration of 8-OH-DPAT in rat;ranges from (0.10-6.20). The class given is functional, organism-based.
The target is the same in series [12].
For series [13] the target is unchanged. Put plainly: Antagonistic activity at postsynaptic 5-hydroxytryptamine 1A receptor was measured by its ability to inhibit hypothermia elicited by s.c. administration of 8-OH-DPAT in rat;ranges from (2.20-30.5). It counts as functional, organism-based.
For series [14] the target is unchanged. Briefly: Antagonistic activity at postsynaptic 5-hydroxytryptamine 1A receptor was measured by its ability to inhibit hypothermia elicited by s.c. administration of 8-OH-DPAT in rat;ranges from (0.40-4). The class given is functional, organism-based.
Series [15] has the same target. Briefly: Antagonistic activity at postsynaptic 5-hydroxytryptamine 1A receptor was measured by its ability to inhibit hypothermia elicited by s.c. administration of 8-OH-DPAT in rat;ranges from (0.45-4.51). It counts as functional, organism-based.
The target is the same in series [16]. Put plainly: Antagonistic activity at postsynaptic 5-hydroxytryptamine 1A receptor was measured by its ability to inhibit hypothermia elicited by s.c. administration of 8-OH-DPAT in rat;ranges from (0.60-1.60). The class given is functional, organism-based.
The target is the same in series [17]. Briefly: Antagonistic activity at postsynaptic 5-hydroxytryptamine 1A receptor was measured by its ability to inhibit hypothermia elicited by s.c. administration of 8-OH-DPAT in rat;ranges is not computable. It counts as functional, organism-based.

Structures are written as SMILES.

The term Ki denotes a measure of affinity in units of concentration, obtained from inhibition or displacement. Low values mean a stronger hold on the target, high ones a looser hold on the target.

Take `O[C@@H]1c2ccc(F)cc2C[C@H]1N1CC=C(c2cccc3c2OCCO3)CC1` (relative stereo): the Ki in series [1] is 0.851 nM. In series [2], this compound had an ID50 of 1.7 mg/kg. In addition, in [3], the “Log Ki” value is reported as -6.96. For the same compound, the Ratio in [4] amounted to 128. For the same compound, the Fh in [5] worked out at 8%.
`COc1ccc2c(c1)[C@@H](O)[C@H](N1CCC(c3cccc4c3OCCO4)CC1)C2` (relative stereo) came in with an ID50 in series [6] of 0.6 mg/kg. The same compound had a Ki in series [1] of 1.1 nM. In [3], the “Log Ki” value is recorded as -7.22. The Ratio in series [4] was found to be 55.
Compound `c1ccc2c(c1)CC(N1CCN(c3cccc4c3OCCO4)CC1)C2` gave an inhibition constant (Ki) in series [1] of 0.794 nM. In [7], this compound came in with an ID50 of 1.44 mg/kg. Besides, the “Log Ki” value in [3] is reported as -6.9. Also, the Ratio in series [4] came to 158. Moreover, in series [5], the Fh came out at 4%.
With `O[C@@H]1c2ccccc2C[C@H]1N1CCN(c2cccc3c2OCCO3)CC1` (relative stereo), the inhibition constant Ki in series [1] is 1.62 nM. In addition, the Efficacy in [8] is 52%. In series [3], the “Log Ki” value is reported as -6.03. In addition, in series [9], the ID50 is 0.96 mg/kg. Besides, the Ratio in series [4] came to 575. In series [5], the Fh is 21%.
With `O[C@@H]1c2ccccc2C[C@H]1N1CCC(c2cccc3c2OCCO3)CC1` (relative stereo), the affinity in series [1] corresponds to a Ki of 0.708 nM. This compound returned an ID50 in [10] of 0.5 mg/kg. The “Log Ki” value in [3] is -7.1. Moreover, the Ratio in [4] was 112. In addition, in [5], the Fh turned out to be 7%.
`O=[N+]([O-])c1ccc2c(c1)[C@@H](O)[C@H](N1CCN(c3cccc4c3OCCO4)CC1)C2` (relative stereo) had a Ki in series [1] of 0.741 nM. This compound returned an ID50 in series [11] of 0.9 mg/kg. Besides, the “Log Ki” value in series [3] is on record as -6.03. For the same compound, the Ratio in [4] came to 1260. In addition, the Fh in [5] worked out at 71%.
Compound `COc1ccc2c(c1)C[C@@H](N1CCN(c3cccc4c3OCCO4)CC1)[C@@H]2O` (racemic) had an ID50 in series [12] of 0.72 mg/kg. In series [8], this compound returned an Efficacy of 21%. Besides, the Ratio in series [4] came out at 224.
Take `O=[N+]([O-])c1ccc2c(c1)[C@@H](O)[C@H](N1CCC(c3cccc4c3OCCO4)CC1)C2` (relative stereo): the ID50 in series [13] is 8.1 mg/kg. In addition, the inhibitory constant (Ki) in series [1] is 0.288 nM. Further, the “Log Ki” value in series [3] is recorded as -6.95. For the same compound, in series [4], the Ratio came to 389. In addition, in series [5], the Fh came to 22%.
Compound `O[C@@H]1c2ccccc2C[C@H]1N1CC=C(c2cccc3c2OCCO3)CC1` (relative stereo) gave a Ki in [1] of 0.832 nM. The compound also came in with an ID50 in [14] of 1.3 mg/kg. The “Log Ki” value in [3] was -7. Further, the Ratio in series [4] came to 120. The Fh in [5] was 4%.
In the case of `O[C@@H]1c2ccc(F)cc2C[C@H]1N1CCN(c2cccc3c2OCCO3)CC1` (racemic), the ID50 in [15] came out at 1.42 mg/kg. The Ratio in series [4] turned out to be 562.
The compound `O[C@@H]1c2cc3c(cc2C[C@H]1N1CCC(c2cccc4c2OCCO4)CC1)OCO3` (relative stereo) gave a Ki in [1] of 0.525 nM. The same compound registered an ID50 in series [16] of 1 mg/kg. Besides, the “Log Ki” value in series [3] was -7.53. Besides, the Ratio in [4] was found to be 56. The Fh in [5] is 8%.
With `O[C@@H]1c2cc(F)c(F)cc2C[C@H]1N1CCN(c2cccc3c2OCCO3)CC1` (relative stereo), the inhibition constant Ki in [1] was 2.14 nM. The “Log Ki” value in [3] is listed as -6.15. Further, the Ratio in [4] was determined as 332. The ID50 in series [17] came to 2.5 mg/kg. Further, the Fh in [5] worked out at 51%.
